Data published in patent US8673894B2 (Hoffmann-La Roche Inc., priority 2010, dated 2014).
Where a name gives a salt, the structure may show the parent alone.

Assays:
[1] = target: T1, endogenous cellular BACE2 (Rattus norvegicus, UniProt Q6IE75); test: Assay for BACE inhibition by measuring cellular TMEM27 cleavage; assay type: cell-based; settings: INS-TMEM27 (INS1e-derived) cells, shed human TMEM27 in supernatant by ELISA
T1 construct: endogenous cellular BACE2 in the Ins1e rat cell line; endogenous in cells; host or cells: INS-TMEM27 (INS1e-derived rat insulinoma cell line with doxycycline-inducible full-length human TMEM27)
T1 sequence (Q6IE75 63-514): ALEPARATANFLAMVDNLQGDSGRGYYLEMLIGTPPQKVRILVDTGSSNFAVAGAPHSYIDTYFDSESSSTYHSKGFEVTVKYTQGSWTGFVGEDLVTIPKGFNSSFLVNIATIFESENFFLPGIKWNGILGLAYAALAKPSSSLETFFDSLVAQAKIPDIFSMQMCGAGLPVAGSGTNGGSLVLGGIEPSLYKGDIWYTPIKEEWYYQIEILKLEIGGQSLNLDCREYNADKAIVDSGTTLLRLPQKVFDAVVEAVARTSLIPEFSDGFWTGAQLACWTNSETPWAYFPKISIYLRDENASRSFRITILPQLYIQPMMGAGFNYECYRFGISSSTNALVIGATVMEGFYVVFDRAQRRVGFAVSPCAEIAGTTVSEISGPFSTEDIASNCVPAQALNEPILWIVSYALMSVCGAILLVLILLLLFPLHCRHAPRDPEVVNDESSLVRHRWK
Text: Assay for BACE Inhibition by Measuring Cellular TMEM27 Cleavage:
The assay uses the principle of inhibition of human TMEM27 cleavage by endogenous cellular BACE2 in the Ins1e rat cell line and shedding from the cell surface into the culture medium, followed by detection in an ELISA assay. Inhibition of BACE2 prevents the cleavage and shedding in a dose-dependent manner.
The stable cell line “INS-TMEM27” represents an INS1e-derived cell line with inducible expression (using the TetOn system) of full-length hTMEM27 in a doxycycline-dependent manner. The cells are cultured throughout the experiment in RPMI1640+ Glutamax (Invitrogen) Penicillin/Streptomycin, 10% Fetal bovine serum, […], […], 100 micrograms/ml G418 and 100 microgram/ml hygromycin and are grown inadherent culture at 37° C. in a standard CO2 cell culture incubator.
INS-TMEM27 cells are seeded in 96-well plates. After 2 days in culture, BACE2 inhibitor is added in a range of concentrations as required by the assay and after a further two hours, doxycycline is added to a final concentration of 500 ng/ml. The cells are incubated for a further 46 hours and the supernatant harvested for detection of shed TMEM27.
An ELISA assay (using a pair of mouse anti-human-TMEM27 antibodies, raised against the extracellular domain of TMEM27) is used for detection of TMEM27 in the culture medium. An EC50 for BACE2 inhibition is calculated using the ELISA readout for each inhibitor concentration with standard curve-fitting software such as XLFit for the Excel spreadsheet program.

Aβ40 = test: Cellular Aβ-lowering assay; assay type: cell-based; settings: HEK293 cells stably expressing human APP695, Aβ40 in supernatant by ELISA after 18-20 hrs; read-out: Cellular assay Abeta40 IC50
Method: Cellular Aβ-Lowering Assay:
Human HEK293 cells which are stably transfected with a vector expressing a cDNA of the human APP wt gene (APP695) were used to assess the potency of the compounds in a cellular assay. The cells were seeded in 96-well microtiter plates in cell culture medium (Iscove, plus 10% (v/v) fetal bovine serum, glutamine, penicillin/streptomycin) to about 80% confluence and the compounds were added at a 10× concentration in 1/10 volume of medium without FCS containing 8% DMSO (final concentration of DMSO was kept at 0.8% v/v). After 18-20 hrs incubation at 37° C. and 5% CO2 in a humidified incubator the culture supernatant was harvested for the determination of Aβ40 concentrations. 96well ELISA plates (e.g., Nunc MaxiSorb) were coated with monoclonal antibody which specifically recognize the C-terminal end of Aβ40 (Brockhaus et al., NeuroReport 9, 1481-1486; 1998). After blocking of non-specific binding sites with e.g. 1% BSA and washing, the culture supernatants were added in suitable dilutions together with a horseradish peroxidase-coupled Aβ detection antibody (e.g., antibody 4G8, Senetek, Maryland Heights, Mo.) and incubated for 5 to 7 hrs. Subsequently the wells of the microtiter plate were washed extensively with Tris-buffered saline containing 0.05% Tween 20 and the assay was developed with tetramethylbenzidine/H2O2 in citric acid buffer. After stopping the reaction with one volume 1 N H2SO4 the reaction was measured in an ELISA reader at 450 nm wavelength. The concentrations of Aβ in the culture supernatants were calculated from a standard curve obtained with known amounts of pure Aβ peptide.

| SMILES | IC50 [1] [µM] | IC50 (Aβ40) [µM] |
| --- | --- | --- |
| CC1(C)C[C@@](C)(c2cc(NC(=O)C3(C(F)(F)F)CC3)ccc2F)N=C(N)CO1 [Example 20, 1-Trifluoromethyl-cyclopropanecarboxylic acid [3-((S)-3-amino-5,7,7-trimethyl-2,5,6,7-tetrahydro-[1,4]oxazepin-5-yl)-4-fluoro-phenyl]-amide] | 0.038 | 0.22 |
| CC1(C)C[C@@](C)(c2cc(NC(=O)c3ncc(C(F)(F)F)cc3Cl)ccc2F)N=C(N)CO1 [Example 21, 3-Chloro-5-trifluoromethyl-pyridine-2-carboxylic acid [3-((S)-3-amino-5,7,7-trimethyl-2,5,6,7-tetrahydro-[1,4]oxazepin-5-yl)-4-fluoro-phenyl]-amide] | 0.0087 | 0.0032 |
| CC1(C)C[C@@](C)(c2cc(NC(=O)CC(F)(F)F)ccc2F)N=C(N)CO1 [Example 22, N-[3-((S)-3-Amino-5,7,7-trimethyl-2,5,6,7-tetrahydro-[1,4]oxazepin-5-yl)-4-fluoro-phenyl]-3,3,3-trifluoro-propionamide] | 0.055 | 0.98 |
| C[C@@]1(c2cc(NC(=O)C3CC3(F)F)ccc2F)CCOCC(N)=N1 (stereo partly drawn) [Example 23, 2,2-Difluoro-cyclopropanecarboxylic acid [3-((S)-3-amino-5-methyl-2,5,6,7-tetrahydro-[1,4]oxazepin-5-yl)-4-fluoro-phenyl]-amide] | 0.14 | 1.64 |
| C[C@@]1(c2cc(NC(=O)C3(C(F)(F)F)CCC3)ccc2F)CCOCC(N)=N1 [Example 24, 1-Trifluoromethyl-cyclobutanecarboxylic acid [3-((S)-3-amino-5-methyl-2,5,6,7-tetrahydro-[1,4]oxazepin-5-yl)-4-fluoro-phenyl]-amide] | 0.028 | 5.87 |
| C[C@]1(c2cc(NC(=O)c3ncc(C(F)(F)F)cc3Cl)ccc2F)N=C(N)COCC1(F)F [Example 25, 3-Chloro-5-trifluoromethyl-pyridine-2-carboxylic acid [3-((R)-3-amino-6,6-difluoro-5-methyl-2,5,6,7-tetrahydro-[1,4]oxazepin-5-yl)-4-fluoro-phenyl]-amide] | 0.051 | 0.007 |
| C[C@]1(c2cc(NC(=O)c3ncccc3F)ccc2F)N=C(N)COCC1(F)F [Example 27, (R)-N-(3-(3-amino-6,6-difluoro-5-methyl-2,5,6,7-tetrahydro-1,4-oxazepin-5-yl)-4-fluorophenyl)-3-fluoropicolinamide, salt with formic acid] | 0.058 | 0.044 |
| CC1(C)OCCC(C)(c2cc(NC(=O)c3ccc(F)cn3)ccc2F)N=C1N (stereo not shown) [Example 28, 5-Fluoro-pyridine-2-carboxylic acid [3-(3-amino-2,2,5-trimethyl-2,5,6,7-tetrahydro-[1,4]oxazepin-5-yl)-4-fluoro-phenyl]-amide] | 0.13 | 0.34 |
| C[C@]1(c2cc(NC(=O)c3ccc(F)cn3)ccc2F)N=C(N)COCC1(F)F [Example 29, (R)-N-(3-(3-amino-6,6-difluoro-5-methyl-2,5,6,7-tetrahydro-1,4-oxazepin-5-yl)-4-fluorophenyl)-5-fluoropicolinamide formate] | 0.0033 | 0.0053 |
| C[C@]1(c2cc(NC(=O)c3ccc(C#N)cn3)ccc2F)N=C(N)COCC1(F)F [Example 30, (R)-N-(3-(3-amino-6,6-difluoro-5-methyl-2,5,6,7-tetrahydro-1,4-oxazepin-5-yl)-4-fluorophenyl)-5-cyanopicolinamide formate] | 0.043 | 0.0021 |
| Cc1cc(Cl)cnc1C(=O)Nc1ccc(F)c([C@@]2(C)N=C(N)COCC2(F)F)c1 [Example 31, (R)-N-(3-(3-amino-6,6-difluoro-5-methyl-2,5,6,7-tetrahydro-1,4-oxazepin-5-yl)-4-fluorophenyl)-5-chloro-3-methylpicolinamide formate] | 0.0026 | 0.001 |
| C[C@]1(c2cc(NC(=O)c3ncc(F)cc3F)ccc2F)N=C(N)COCC1(F)F [Example 32, (R)-N-(3-(3-amino-6,6-difluoro-5-methyl-2,5,6,7-tetrahydro-1,4-oxazepin-5-yl)-4-fluorophenyl)-3,5-difluoropicolinamide formate] | 0.0044 | 0.0045 |
| C[C@]1(c2cc(NC(=O)C3(C(F)(F)F)CC3)ccc2F)N=C(N)COCC1(F)F [Example 33, (R)-N-(3-(3-amino-6,6-difluoro-5-methyl-2,5,6,7-tetrahydro-1,4-oxazepin-5-yl)-4-fluorophenyl)-1-(trifluoromethyl)cyclopropanecarboxamide formate] | 0.24 | 0.09 |

The next lines start with the values.

| IC50 [1] [µM] | IC50 (Aβ40) [µM] | SMILES |
| --- | --- | --- |
| 0.38 | 0.076 | C[C@]1(c2cc(NC(=O)C3CC3(F)F)ccc2F)N=C(N)COCC1(F)F (stereo partly drawn) [Example 34, N-(3-((R)-3-amino-6,6-difluoro-5-methyl-2,5,6,7-tetrahydro-1,4-oxazepin-5-yl)-4-fluorophenyl)-2,2-difluorocyclopropanecarboxamide formate] |
| 0.029 | 0.014 | C[C@]1(c2cc(NC(=O)c3ccccn3)ccc2F)N=C(N)COCC1(F)F [Example 35, (R)-N-(3-(3-amino-6,6-difluoro-5-methyl-2,5,6,7-tetrahydro-1,4-oxazepin-5-yl)-4-fluorophenyl)picolinamide formate] |
| 0.0084 | 0.038 | C[C@]1(c2cc(NC(=O)c3ncccc3Cl)ccc2F)N=C(N)COCC1(F)F [Example 36, (R)-N-(3-(3-amino-6,6-difluoro-5-methyl-2,5,6,7-tetrahydro-1,4-oxazepin-5-yl)-4-fluorophenyl)-3-chloropicolinamide formate] |
| 0.025 | 0.054 | C[C@]1(c2cc(NC(=O)c3ncccc3C(F)(F)F)ccc2F)N=C(N)COCC1(F)F [Example 37, (R)-N-(3-(3-amino-6,6-difluoro-5-methyl-2,5,6,7-tetrahydro-1,4-oxazepin-5-yl)-4-fluorophenyl)-3-(trifluoromethyl)picolinamide formate] |
| 0.17 | 0.055 | C[C@]1(c2cc(NC(=O)c3cnc(Cl)cn3)ccc2F)N=C(N)COCC1(F)F [Example 38, (R)-N-(3-(3-amino-6,6-difluoro-5-methyl-2,5,6,7-tetrahydro-1,4-oxazepin-5-yl)-4-fluorophenyl)-5-chloropyrazine-2-carboxamide formate] |
| 0.003 | 0.0026 | C[C@]1(c2cc(NC(=O)c3ncc(Cl)cc3Cl)ccc2F)N=C(N)COCC1(F)F [Example 39, (R)-N-(3-(3-amino-6,6-difluoro-5-methyl-2,5,6,7-tetrahydro-1,4-oxazepin-5-yl)-4-fluorophenyl)-3,5-dichloropicolinamide formate] |
| 0.0062 | 0.0059 | C[C@]1(c2cc(NC(=O)c3ncc(F)cc3Cl)ccc2F)N=C(N)COCC1(F)F [Example 40, (R)-N-(3-(3-amino-6,6-difluoro-5-methyl-2,5,6,7-tetrahydro-1,4-oxazepin-5-yl)-4-fluorophenyl)-3-chloro-5-fluoropicolinamide formate] |
